Data reported in ChEMBL document CHEMBL1212811, “Chemical phylogenetics of histone deacetylases” (Nat Chem Biol, 2010).

Key:
Histone deacetylase 1 = Histone deacetylase 1 (Homo sapiens, UniProt Q13547)
Histone deacetylase 8 = target: T1, Histone deacetylase 8 (Homo sapiens, UniProt Q9BY41)
T1 sequence (Q9BY41 whole entry): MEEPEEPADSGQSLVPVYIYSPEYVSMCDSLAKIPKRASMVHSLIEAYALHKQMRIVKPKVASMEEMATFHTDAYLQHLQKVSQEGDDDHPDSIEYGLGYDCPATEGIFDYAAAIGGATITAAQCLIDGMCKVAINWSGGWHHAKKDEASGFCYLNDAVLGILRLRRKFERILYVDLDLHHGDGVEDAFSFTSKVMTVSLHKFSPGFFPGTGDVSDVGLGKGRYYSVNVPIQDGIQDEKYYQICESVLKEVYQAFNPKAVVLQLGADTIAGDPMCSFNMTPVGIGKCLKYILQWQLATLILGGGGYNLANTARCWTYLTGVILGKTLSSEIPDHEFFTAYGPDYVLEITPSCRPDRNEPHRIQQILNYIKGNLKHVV

[1] = target: T2, Protein deacetylase HDAC6 (Homo sapiens, UniProt Q9UBN7)
T2 sequence (Q9UBN7 whole entry): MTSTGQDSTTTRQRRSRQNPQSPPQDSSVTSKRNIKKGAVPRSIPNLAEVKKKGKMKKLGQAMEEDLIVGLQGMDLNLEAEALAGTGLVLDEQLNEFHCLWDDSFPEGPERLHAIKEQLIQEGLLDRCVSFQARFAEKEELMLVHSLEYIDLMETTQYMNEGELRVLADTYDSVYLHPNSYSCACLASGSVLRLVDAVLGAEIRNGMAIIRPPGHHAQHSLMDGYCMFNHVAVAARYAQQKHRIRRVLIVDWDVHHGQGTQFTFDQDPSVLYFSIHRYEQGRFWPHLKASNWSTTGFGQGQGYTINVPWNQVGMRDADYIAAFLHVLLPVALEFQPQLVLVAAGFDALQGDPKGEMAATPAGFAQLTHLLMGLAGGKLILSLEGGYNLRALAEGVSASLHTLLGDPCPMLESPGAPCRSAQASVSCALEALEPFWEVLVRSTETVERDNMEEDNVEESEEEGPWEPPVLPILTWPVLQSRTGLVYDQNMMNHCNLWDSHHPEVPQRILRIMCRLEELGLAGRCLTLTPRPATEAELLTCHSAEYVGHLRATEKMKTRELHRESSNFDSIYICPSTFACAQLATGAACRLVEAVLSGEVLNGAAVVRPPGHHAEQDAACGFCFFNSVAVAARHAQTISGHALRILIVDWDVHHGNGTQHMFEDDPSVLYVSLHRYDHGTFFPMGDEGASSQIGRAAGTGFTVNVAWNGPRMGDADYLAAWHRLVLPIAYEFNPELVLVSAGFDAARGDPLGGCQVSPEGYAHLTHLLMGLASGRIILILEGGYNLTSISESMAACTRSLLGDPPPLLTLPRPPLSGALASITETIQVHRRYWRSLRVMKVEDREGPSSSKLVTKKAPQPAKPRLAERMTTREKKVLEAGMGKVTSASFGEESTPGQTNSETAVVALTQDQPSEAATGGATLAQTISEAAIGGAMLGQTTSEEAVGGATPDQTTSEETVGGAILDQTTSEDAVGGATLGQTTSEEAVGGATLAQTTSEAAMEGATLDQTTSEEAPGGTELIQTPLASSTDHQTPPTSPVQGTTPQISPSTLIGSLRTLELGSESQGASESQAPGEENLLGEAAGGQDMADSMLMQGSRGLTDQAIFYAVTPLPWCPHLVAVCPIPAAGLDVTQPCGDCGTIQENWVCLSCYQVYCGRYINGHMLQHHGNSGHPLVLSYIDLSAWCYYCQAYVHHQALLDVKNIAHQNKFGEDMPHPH

Histone deacetylase 2 = Histone deacetylase 2 (Homo sapiens, UniProt Q92769)
Histone deacetylase 5 = Histone deacetylase 5 (Homo sapiens, UniProt Q9UQL6)
Histone deacetylase 3 = Histone deacetylase 3 (Homo sapiens, UniProt O15379)
Histone deacetylase 9 = Histone deacetylase 9 (Homo sapiens, UniProt Q9UKV0)
Histone deacetylase 4 = Histone deacetylase 4 (Homo sapiens, UniProt P56524)
Histone deacetylase 7 = target: T3, Histone deacetylase 7 (Homo sapiens, UniProt Q8WUI4)
T3 sequence (Q8WUI4 whole entry): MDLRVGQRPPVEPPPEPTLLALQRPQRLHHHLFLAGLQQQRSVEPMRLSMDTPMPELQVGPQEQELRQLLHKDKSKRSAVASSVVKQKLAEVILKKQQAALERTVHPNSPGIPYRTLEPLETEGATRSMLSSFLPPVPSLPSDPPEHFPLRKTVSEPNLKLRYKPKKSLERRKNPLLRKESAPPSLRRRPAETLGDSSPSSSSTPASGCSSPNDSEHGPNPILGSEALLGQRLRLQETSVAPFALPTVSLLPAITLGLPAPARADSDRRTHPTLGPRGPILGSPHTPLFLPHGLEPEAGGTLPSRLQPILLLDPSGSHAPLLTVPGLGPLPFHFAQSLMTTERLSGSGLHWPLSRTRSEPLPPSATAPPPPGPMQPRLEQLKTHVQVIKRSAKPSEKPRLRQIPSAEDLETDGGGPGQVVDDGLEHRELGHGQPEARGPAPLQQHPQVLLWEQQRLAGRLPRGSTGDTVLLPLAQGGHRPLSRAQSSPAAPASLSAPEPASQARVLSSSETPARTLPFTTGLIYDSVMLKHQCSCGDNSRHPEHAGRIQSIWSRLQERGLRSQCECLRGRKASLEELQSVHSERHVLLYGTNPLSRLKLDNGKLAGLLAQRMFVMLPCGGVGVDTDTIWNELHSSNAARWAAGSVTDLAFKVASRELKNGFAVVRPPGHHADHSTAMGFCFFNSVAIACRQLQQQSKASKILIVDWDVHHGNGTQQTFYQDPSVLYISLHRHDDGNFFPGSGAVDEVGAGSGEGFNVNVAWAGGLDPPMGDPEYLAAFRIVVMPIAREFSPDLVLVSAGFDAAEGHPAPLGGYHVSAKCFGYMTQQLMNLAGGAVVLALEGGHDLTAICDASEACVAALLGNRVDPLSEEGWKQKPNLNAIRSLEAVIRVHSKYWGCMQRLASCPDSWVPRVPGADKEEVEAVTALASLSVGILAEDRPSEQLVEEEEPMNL

Chain of Histone deacetylase 1 (Q13547 whole entry): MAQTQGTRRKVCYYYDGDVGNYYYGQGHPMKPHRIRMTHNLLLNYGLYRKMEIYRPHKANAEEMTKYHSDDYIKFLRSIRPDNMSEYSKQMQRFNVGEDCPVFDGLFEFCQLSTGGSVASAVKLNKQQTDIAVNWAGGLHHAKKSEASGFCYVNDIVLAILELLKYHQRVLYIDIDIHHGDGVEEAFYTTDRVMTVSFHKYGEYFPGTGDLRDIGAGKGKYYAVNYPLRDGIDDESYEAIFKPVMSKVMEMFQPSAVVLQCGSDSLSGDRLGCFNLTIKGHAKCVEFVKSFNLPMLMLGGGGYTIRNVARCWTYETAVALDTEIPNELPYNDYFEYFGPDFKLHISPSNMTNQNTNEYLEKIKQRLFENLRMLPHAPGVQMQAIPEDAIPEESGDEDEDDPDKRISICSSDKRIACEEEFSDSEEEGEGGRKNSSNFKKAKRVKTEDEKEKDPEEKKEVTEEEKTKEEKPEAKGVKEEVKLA
Chain of Histone deacetylase 2 (Q92769 whole entry): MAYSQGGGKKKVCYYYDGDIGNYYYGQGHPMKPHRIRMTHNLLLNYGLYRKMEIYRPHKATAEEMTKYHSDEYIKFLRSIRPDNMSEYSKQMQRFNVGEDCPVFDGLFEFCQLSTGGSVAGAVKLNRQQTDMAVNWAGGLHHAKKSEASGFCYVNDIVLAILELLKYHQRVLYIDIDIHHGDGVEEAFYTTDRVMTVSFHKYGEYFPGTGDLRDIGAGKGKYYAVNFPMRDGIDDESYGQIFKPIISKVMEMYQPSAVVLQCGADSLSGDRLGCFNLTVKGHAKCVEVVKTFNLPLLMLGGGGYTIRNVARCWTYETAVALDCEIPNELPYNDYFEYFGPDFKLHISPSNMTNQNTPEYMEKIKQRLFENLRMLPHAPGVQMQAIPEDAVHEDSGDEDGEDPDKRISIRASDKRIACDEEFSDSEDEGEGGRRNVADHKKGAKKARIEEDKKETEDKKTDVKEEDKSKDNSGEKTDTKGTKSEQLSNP
Chain of Histone deacetylase 9 (Q9UKV0 whole entry): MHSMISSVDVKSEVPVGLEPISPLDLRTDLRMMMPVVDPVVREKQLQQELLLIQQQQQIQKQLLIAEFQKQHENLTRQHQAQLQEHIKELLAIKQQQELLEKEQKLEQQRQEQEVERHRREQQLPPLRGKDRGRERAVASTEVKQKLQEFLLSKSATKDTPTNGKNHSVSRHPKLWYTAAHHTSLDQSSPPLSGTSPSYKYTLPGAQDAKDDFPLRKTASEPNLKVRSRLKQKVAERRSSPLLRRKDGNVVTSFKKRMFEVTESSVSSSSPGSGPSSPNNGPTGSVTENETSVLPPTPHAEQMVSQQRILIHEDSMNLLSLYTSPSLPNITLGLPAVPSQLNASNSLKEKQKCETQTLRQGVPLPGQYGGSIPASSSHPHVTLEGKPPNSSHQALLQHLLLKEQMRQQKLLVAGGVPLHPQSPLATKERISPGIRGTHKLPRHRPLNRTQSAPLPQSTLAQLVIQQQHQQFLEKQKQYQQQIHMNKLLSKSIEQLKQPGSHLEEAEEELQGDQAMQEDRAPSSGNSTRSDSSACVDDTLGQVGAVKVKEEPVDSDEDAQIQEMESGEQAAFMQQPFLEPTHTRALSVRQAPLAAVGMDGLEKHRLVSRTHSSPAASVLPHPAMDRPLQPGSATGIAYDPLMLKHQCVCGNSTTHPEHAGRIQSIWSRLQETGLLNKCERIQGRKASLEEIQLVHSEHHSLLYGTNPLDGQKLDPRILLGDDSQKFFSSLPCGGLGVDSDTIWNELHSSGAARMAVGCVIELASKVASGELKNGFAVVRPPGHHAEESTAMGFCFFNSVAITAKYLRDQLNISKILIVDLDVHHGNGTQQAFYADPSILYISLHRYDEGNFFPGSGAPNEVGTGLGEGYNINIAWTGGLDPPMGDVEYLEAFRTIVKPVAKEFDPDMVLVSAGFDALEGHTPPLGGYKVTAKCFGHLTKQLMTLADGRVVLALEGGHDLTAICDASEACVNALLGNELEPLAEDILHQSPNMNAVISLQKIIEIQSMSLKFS
Chain of Histone deacetylase 3 (O15379 whole entry): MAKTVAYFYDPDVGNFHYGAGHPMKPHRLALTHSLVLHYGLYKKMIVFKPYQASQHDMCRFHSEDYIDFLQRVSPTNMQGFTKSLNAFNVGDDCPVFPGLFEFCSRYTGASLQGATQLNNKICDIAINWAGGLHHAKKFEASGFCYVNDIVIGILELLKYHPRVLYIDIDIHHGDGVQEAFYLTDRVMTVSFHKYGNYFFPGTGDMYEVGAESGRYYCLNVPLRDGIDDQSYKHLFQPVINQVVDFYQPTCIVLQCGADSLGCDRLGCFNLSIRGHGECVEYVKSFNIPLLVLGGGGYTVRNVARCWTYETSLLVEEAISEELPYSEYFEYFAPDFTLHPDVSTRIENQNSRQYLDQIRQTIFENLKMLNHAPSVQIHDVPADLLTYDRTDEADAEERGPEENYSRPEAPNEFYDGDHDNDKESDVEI
Chain of Histone deacetylase 5 (Q9UQL6 whole entry): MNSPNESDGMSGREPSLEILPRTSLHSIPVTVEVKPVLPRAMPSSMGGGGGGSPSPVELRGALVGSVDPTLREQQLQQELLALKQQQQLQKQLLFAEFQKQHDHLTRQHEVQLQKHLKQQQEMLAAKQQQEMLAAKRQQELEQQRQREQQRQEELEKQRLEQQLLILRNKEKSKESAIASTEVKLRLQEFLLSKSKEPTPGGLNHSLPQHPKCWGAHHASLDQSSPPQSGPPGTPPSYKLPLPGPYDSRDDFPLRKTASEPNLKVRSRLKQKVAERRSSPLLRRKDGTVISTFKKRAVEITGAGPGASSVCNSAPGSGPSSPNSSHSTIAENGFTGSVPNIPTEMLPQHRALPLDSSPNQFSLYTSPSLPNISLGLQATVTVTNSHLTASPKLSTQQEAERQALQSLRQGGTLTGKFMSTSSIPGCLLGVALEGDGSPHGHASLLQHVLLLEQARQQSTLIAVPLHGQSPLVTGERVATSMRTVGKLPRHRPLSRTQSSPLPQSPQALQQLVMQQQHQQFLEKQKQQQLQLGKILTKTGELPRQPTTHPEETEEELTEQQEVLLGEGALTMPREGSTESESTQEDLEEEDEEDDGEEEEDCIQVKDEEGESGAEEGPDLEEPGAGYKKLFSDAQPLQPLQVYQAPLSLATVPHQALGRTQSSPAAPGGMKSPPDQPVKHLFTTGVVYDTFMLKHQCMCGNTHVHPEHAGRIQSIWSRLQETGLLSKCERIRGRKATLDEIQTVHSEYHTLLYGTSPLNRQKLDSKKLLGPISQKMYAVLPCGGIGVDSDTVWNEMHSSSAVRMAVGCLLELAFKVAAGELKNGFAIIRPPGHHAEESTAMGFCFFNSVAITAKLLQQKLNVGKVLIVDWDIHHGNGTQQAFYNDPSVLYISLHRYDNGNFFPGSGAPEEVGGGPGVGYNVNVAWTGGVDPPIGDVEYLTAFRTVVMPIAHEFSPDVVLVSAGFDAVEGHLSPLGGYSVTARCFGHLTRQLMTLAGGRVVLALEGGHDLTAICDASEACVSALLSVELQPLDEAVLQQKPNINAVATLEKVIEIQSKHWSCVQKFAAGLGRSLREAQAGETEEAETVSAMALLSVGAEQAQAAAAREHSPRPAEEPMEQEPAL
Chain of Histone deacetylase 4 (P56524 whole entry): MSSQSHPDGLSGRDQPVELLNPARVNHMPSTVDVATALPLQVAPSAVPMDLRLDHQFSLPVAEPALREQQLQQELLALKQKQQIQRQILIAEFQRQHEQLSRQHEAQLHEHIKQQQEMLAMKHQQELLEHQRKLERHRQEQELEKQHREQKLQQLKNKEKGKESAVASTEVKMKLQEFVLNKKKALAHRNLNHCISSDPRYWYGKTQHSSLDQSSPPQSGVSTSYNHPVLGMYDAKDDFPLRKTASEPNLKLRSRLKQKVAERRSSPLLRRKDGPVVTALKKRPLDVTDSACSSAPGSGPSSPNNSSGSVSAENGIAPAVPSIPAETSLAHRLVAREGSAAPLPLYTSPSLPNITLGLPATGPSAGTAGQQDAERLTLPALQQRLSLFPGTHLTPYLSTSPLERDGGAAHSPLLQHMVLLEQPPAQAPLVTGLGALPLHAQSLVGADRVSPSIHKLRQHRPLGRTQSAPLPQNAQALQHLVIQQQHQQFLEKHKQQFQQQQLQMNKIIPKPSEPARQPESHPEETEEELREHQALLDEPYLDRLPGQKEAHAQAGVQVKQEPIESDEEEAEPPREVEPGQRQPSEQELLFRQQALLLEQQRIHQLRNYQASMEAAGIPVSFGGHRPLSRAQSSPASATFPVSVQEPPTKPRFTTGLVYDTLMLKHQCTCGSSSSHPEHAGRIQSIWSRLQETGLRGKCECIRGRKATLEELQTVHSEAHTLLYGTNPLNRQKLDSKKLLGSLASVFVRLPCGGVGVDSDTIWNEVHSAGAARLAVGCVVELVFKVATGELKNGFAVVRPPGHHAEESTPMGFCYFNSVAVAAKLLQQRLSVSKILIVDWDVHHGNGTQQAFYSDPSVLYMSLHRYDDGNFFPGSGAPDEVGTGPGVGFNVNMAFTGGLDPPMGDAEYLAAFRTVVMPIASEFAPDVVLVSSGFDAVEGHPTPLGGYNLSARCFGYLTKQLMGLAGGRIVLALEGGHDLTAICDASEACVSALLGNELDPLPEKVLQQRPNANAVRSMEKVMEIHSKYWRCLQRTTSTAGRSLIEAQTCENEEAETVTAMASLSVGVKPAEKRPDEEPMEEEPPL

Row | SMILES | Ki (Histone deacetylase 1) | Ki (Histone deacetylase 8) | Ki [1] | Ki (Histone deacetylase 2) | Ki (Histone deacetylase 5) | Ki (Histone deacetylase 3) | Ki (Histone deacetylase 9) | Ki (Histone deacetylase 4) | Ki (Histone deacetylase 7)
1 | C/C=C1\NC(=O)[C@H]2CSSCC/C=C/[C@H](CC(=O)N[C@H](C(C)C)C(=O)N2)OC(=O)[C@H](C(C)C)NC1=O [ROMIDEPSIN] | 0.0015 nM | – | – | – | – | – | – | – | –
2 | O=C(O)CCCCCCC(=O)Nc1ccc([C@H]2O[C@@H](CSc3nc(-c4ccccc4)c(-c4ccccc4)o3)C[C@@H](c3ccc(CO)cc3)O2)cc1 [NILTUBACIN] | – | 750 nM | 2200 nM | – | – | – | – | – | –
3 | O=C(CCCc1ccccc1)NO [PHENYLBUTYRYLHYDROXAMIC ACID] | – | 1850 nM | 150 nM | 430 nM | 16000 nM | – | – | – | –
4 | O=C(CCCCCCC(=O)NO)NO [SUBEROHYDROXAMIC ACID] | – | – | 14.5 nM | – | 9500 nM | 125 nM | – | – | –
5 | Cn1c(/C=C/C(=O)NO)ccc1C(=O)Cc1ccccc1 | 55 nM | 600 nM | 30 nM | 125 nM | 11500 nM | 250 nM | 10000 nM | 17500 nM | 7000 nM
6 | C=C[C@@H](O)[C@@H]1O[C@H]1/C=C/[C@@H]1O[C@H]1[C@@H](C)O [DEPUDECIN] | 5500 nM | – | – | 12500 nM | – | 14500 nM | – | – | –
7 | O=C(/C=C/c1ccc(C(=O)N/N=C/c2ccc(O)c(O)c2O)cc1)NO | 120 nM | 50 nM | 32 nM | 70 nM | 180 nM | 120 nM | 1400 nM | 950 nM | 1100 nM
8 | O=C(/C=C/c1cccc(S(=O)(=O)Nc2ccccc2)c1)NO [BELINOSTAT] | – | – | 1.6 nM | – | – | – | – | 380 nM | –
9 | O=C(CCCCCCC(=O)Nc1cccnc1)NO [PYROXAMIDE] | – | 1000 nM | 4.8 nM | 36000 nM | 4750 nM | 8 nM | – | – | –
10 | CCN(CC)Cc1ccc2cc(COC(=O)Nc3ccc(C(=O)NO)cc3)ccc2c1 [GIVINOSTAT] | – | – | – | – | 600 nM | – | 390 nM | 1050 nM | –
